BindingDB's records for doi:10.1021/jm500629e (Mcgill University, 2014)
pIC50: −log10 of the molar value.

Target: T1, Farnesyl pyrophosphate synthase (Homo sapiens, UniProt P14324)
T1 sequence (P14324 whole entry): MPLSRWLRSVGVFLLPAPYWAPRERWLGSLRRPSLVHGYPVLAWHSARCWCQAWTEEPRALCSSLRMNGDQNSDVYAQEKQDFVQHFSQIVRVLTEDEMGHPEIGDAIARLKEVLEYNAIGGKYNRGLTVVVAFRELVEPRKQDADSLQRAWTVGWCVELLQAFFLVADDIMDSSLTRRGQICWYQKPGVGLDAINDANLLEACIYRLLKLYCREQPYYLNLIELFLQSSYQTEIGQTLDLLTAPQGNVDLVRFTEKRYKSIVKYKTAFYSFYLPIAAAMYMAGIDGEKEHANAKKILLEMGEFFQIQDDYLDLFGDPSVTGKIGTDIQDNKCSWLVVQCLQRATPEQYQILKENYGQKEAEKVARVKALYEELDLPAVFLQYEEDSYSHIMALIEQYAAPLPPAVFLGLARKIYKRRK
Experiment: Inhibition of FPPS (unknown origin)

Row | SMILES | pIC50
1 | Cc1ccc(-c2cc3c(NCP(=O)(O)O)ncnc3s2)cc1 | 5.35
2 | Cc1ccc(-c2cc3c(NCCP(=O)(O)O)ncnc3s2)cc1 | 6.70
3 | Cc1ccc(-c2cc3c(CCP(=O)(O)O)ncnc3s2)cc1 | 6.70
4 | Cc1ccc(-c2cc3c(NCC(=O)O)ncnc3s2)cc1 | < 4.70
5 | Cc1ccc(-c2cc3c(NCP(=O)(O)O)ncnc3s2)cc1Cl | 5.48
6 | Cc1ccc(-c2cc3c(NC(c4ccccc4)P(=O)(O)O)ncnc3s2)cc1Cl (stereo not given) | 5.92
7 | O=P(O)(O)CCc1cccnc1 | 6.70
8 | Cc1ccc(-c2cc3c(NC(P(=O)(O)O)P(=O)(O)O)ncnc3s2)cc1 | 6.70
9 | O=P(O)(O)C(Nc1ncnc2sc(-c3ccc(OC4CC4)cc3)cc12)P(=O)(O)O | 6.70
10 | O=P(O)(O)C(Cc1cccnc1)P(=O)(O)O [(1-phosphono-2-pyridin-3-yl-ethyl)-phosphonic acid] | 6.70
